# Measurements: patent US20140135327A1, “N- (2 -AMINOPHENYL) BENZAMIDE DERIVATIVES AS HISTONE DEACETYLASE INHIBITORS” (CANCER RESEARCH TECHNOLOGY LIMITED, priority 2011, published 2014)
# Columns and labels:
# HDAC 6 = target: T1, HDAC 6 (Homo sapiens, UniProt Q9UBN7); assay: Caliper HDAC inhibitor profiling assay (microfluidic mobility-shift), HDAC 6; assay type: biochemical; settings: 1 hour at room temperature, read-out: IC50 (μM) HDAC6
# T1 sequence (Q9UBN7 1-1215): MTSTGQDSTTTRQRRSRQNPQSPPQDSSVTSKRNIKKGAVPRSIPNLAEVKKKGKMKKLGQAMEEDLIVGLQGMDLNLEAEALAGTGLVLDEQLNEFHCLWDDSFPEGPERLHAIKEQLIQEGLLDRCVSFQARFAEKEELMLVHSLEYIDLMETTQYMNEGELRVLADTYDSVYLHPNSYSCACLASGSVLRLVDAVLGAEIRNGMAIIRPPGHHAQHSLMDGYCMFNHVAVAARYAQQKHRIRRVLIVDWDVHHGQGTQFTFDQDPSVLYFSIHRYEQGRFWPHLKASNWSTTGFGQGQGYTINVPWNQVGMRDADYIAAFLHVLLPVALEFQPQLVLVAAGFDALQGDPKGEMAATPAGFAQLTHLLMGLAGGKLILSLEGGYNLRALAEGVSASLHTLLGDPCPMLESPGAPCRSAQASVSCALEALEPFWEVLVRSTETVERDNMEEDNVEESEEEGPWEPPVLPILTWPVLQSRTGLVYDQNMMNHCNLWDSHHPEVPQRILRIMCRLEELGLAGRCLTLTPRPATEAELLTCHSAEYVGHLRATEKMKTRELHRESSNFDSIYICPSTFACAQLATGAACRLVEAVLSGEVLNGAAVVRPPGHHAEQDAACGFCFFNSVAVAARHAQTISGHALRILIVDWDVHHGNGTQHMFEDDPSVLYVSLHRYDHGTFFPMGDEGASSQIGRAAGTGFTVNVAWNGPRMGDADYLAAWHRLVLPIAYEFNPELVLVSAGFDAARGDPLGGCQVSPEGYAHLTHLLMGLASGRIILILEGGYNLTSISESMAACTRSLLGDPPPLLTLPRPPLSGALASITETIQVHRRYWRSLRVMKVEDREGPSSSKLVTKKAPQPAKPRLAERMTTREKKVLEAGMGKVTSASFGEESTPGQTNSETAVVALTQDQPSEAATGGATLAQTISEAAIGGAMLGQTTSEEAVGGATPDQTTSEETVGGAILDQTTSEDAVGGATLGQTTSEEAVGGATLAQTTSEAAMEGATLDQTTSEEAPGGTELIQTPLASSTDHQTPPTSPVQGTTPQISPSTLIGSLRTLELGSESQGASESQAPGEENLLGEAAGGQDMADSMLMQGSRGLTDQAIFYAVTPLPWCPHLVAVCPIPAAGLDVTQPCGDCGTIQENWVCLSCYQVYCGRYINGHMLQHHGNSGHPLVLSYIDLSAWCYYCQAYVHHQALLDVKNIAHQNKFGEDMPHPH
# Experimental: The activity of the compounds of the invention against HDAC 3 (Class I) and HDAC 6 (Class II) can be determined using the Caliper Life Sciences HDAC inhibitor profiling assay, which utilises microfluidic mobility-shift detection.
# Reaction buffer: 25 mM Tris/Cl, pH 8.0, 137 mM NaCl, 2.7 mM KCl, 1 mM MgCl2, 0.1 mg/ml BSA (fatty acid free).
# Stop Buffer: 100 mM HEPES, pH 7.5, 10 mM EDTA, 0.04% Brij-35, 0.25% CR-3, and 2.5 μM Trichostatin A.
# Stopped reactions were assembled in microtiter plate wells by adding 1 μL of the inhibitor compound in DMSO, 15 μL 2× Enzyme, and 15 μL 2× peptide. The reactions were incubated for 1 hour at room temperature, stopped with the addition of 45 μL Stop Solution, and read on the LabChip EZ Reader®. The curves were fit with sigmoidal dose response algorithm using GraphPad Prism.
# HDAC 1 = target: T2, HDAC 1 (Homo sapiens, UniProt Q13547); assay: Fluorescence-based HDAC isoform assay with electrophoretic separation, HDAC 1; assay type: biochemical; settings: isolated 6×His-tagged isoform, 1 μM FAM-labeled acetylated peptide, 17 h at 25° C.
# T2 construct: HDACs 1, 2, 3, 6, and 8 were expressed as full length fusion proteins; 6xHis; made in house; host or cells: Sf9 cells (baculovirus)
# Experimental: The inhibitory effects of the compounds of Examples 7 and 9 above on HDAC activity were determined using a fluorescence-based assay with electrophoretic separation of substrate and product carried out using a microfluidic system followed by quantitation of fluorescence intensity in the substrate and product peaks.
# The assays were performed using isolated HDAC isoforms that had been expressed as 6×His-tagged fusion proteins in a baculovirus expression system in Sf9 cells. HDACs 1, 2, 3, 6, and 8 were expressed as full length fusion proteins. For HDAC-4 and 7 only catalytic domains were expressed (HDAC-4 CAT and HDAC-7 CAT). The HDAC10 fusion protein was expressed as a carboxy-terminal deletion of 38 amino acids (residues 632-669). HDAC3 was coexpressed with a fragment of the SMRT gene (residues 395-489) to generate enzymatically active protein. Purified proteins were incubated with 1 μM carboxyfluorescein (FAM)-labeled acetylated peptide substrate and test compound for 17 h at 25° C. in HDAC assay buffer containing 100 mM HEPES (pH 7.5), 25 mM KCl, 0.1% BSA, and 0.01% Triton X-100. […] Substrate and product were separated electrophoretically using a Caliper LabChip 3000 system with blue laser excitation and green fluorescence detection (CCD2). The fluorescence intensity in the substrate and product peaks was determined using the Well Analyzer software on the Caliper system. […]
# T2 sequence (Q13547 whole entry, species assumed, the tested form may be a part, canonical isoform): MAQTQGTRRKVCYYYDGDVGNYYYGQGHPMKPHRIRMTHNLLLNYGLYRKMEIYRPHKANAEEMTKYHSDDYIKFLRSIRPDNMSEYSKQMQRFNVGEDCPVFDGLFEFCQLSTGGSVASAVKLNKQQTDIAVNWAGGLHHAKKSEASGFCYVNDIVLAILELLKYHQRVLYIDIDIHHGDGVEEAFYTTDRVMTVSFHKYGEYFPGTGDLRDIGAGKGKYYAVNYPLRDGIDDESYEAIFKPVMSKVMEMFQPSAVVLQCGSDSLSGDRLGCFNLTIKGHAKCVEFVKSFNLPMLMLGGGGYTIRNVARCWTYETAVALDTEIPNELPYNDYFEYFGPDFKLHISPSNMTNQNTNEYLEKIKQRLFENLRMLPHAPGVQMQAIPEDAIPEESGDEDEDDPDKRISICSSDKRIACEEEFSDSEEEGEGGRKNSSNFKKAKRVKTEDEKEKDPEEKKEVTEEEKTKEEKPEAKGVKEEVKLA
Structure (SMILES),IC50 (HDAC 6),IC50 (HDAC 1)
"C=C1CN(Cc2ccc(C(=O)Nc3ccccc3N)cc2)C(=O)c2ccccc21 [Example 7, N-(2-Aminophenyl)-4-[(4-methylene-1-oxo-3,4-dihydroisoquino-2(1H)-yl)methyl]benzamide]",> 10 µM,8.7 µM
"C=C1CN(Cc2ccc(C(=O)Nc3ccccc3N)cc2)C(CC(=O)O)c2ccccc21 (stereo not shown) [Example 9, [2-(4-{[(2-Aminophenyl)amino]carbonyl}benzyl)-4-methylene-1,2,3,4-tetra hydroisoquinolin-1-yl]acetic acid]",> 10 µM,> 30 µM
